# According to paper PMC5218480 (PLoS ONE, 2017):
# Tested on: MV-4-11 cells
# Assay: Gene expression microarray analysis (Affymetrix PrimeView) and GSEA
# Assay type: cell-based, human
# Set-up: RFU PODN (11730768_x_at) / Fold change /veh PODN (11730768_x_at) / RFU LINC00158 (11744669_a_at) / Fold change /veh LINC00158 (11744669_a_at) / RFU DUSP10 (11751237_a_at) / Fold change /veh DUSP10 (11751237_a_at) / RFU ID3 (11757404_x_at) / Fold change /veh ID3 (11757404_x_at) / RFU PLEKHG5 (11737974_s_at) / Fold change /veh PLEKHG5 (11737974_s_at) / RFU LRRC4B (11730491_at) / Fold change /veh LRRC4B (11730491_at) / RFU GIMAP4 (11747438_a_at) / Fold change /veh GIMAP4 (11747438_a_at) / RFU KRT8 (11758183_x_at) / Fold change /veh KRT8 (11758183_x_at) / RFU CNN1 (11734310_a_at) / Fold change /veh CNN1 (11734310_a_at) / RFU VPS37D (11726825_at) / Fold change /veh VPS37D (11726825_at) / RFU C10orf10 (11716522_x_at) / Fold change /veh C10orf10 (11716522_x_at) / RFU KIR2DL2 /// KIR2DL4 /// KIR2DL5A /// KIR2DL5B /// KIR2DS1 /// KIR2DS2 /// KIR2DS3 /// KIR2DS4 /// KIR3DL3 /// KIR3DL3 /// KIR3DS1 (11738374_at) / Fold change /veh KIR2DL2 /// KIR2DL4 /// KIR2DL5A /// KIR2DL5B /// KIR2DS1 /// KIR2DS2 /// KIR2DS3 /// KIR2DS4 /// KIR3DL3 /// KIR3DL3 /// KIR3DS1 (11738374_at) / RFU C1QL1 (11718748_at) / Fold change /veh C1QL1 (11718748_at) / RFU TMPRSS4 (11747572_a_at) / Fold change /veh TMPRSS4 (11747572_a_at) / RFU HAMP (11756126_x_at) / Fold change /veh HAMP (11756126_x_at) / RFU RNFT2 (11725882_a_at) / Fold change /veh RNFT2 (11725882_a_at) / RFU NR4A2 (11747474_a_at) / Fold change /veh NR4A2 (11747474_a_at) / RFU ABCC12 (11746883_a_at) / Fold change /veh ABCC12 (11746883_a_at) / RFU TMEM136 (11760407_x_at) / Fold change /veh TMEM136 (11760407_x_at) / RFU CLDN22 /// WWC2 (11732394_at) / Fold change /veh CLDN22 /// WWC2 (11732394_at) / RFU HLA-DPB1 (11760878_x_at) / Fold change /veh HLA-DPB1 (11760878_x_at) / RFU SPINT1 (11716480_a_at) / Fold change /veh SPINT1 (11716480_a_at) / RFU GAP43 (11754022_s_at) / Fold change /veh GAP43 (11754022_s_at) / RFU A4GNT (11735810_at) / Fold change /veh A4GNT (11735810_at) / RFU PRB3 (11715151_x_at) / Fold change /veh PRB3 (11715151_x_at) / RFU TUBB4B (11761932_at) / Fold change /veh TUBB4B (11761932_at) / RFU CAPN14 (11732068_a_at) / Fold change /veh CAPN14 (11732068_a_at) / RFU TMCC2 (11721928_a_at) / Fold change /veh TMCC2 (11721928_a_at) / RFU IRGQ (11745062_a_at) / Fold change /veh IRGQ (11745062_a_at) / RFU FAM174B (11720279_a_at) / Fold change /veh FAM174B (11720279_a_at) / RFU TMPRSS4 (11748680_a_at) / Fold change /veh TMPRSS4 (11748680_a_at) / RFU FAM212B (11763350_a_at) / Fold change /veh FAM212B (11763350_a_at) / RFU PLEKHG5 (11743358_a_at) / Fold change /veh PLEKHG5 (11743358_a_at) / RFU ZSCAN30 (11745921_a_at) / Fold change /veh ZSCAN30 (11745921_a_at) / RFU CMKLR1 (11741424_a_at) / Fold change /veh CMKLR1 (11741424_a_at) / RFU LOC101060620 /// MAPK8IP1 (11723275_at) / Fold change /veh LOC101060620 /// MAPK8IP1 (11723275_at) / RFU SPTSSB (11747773_x_at) / Fold change /veh SPTSSB (11747773_x_at) / RFU PRSS12 (11739890_at) / Fold change /veh PRSS12 (11739890_at) / RFU BIN1 (11741810_x_at) / Fold change /veh BIN1 (11741810_x_at) / RFU WNT11 (11732464_a_at) / Fold change /veh WNT11 (11732464_a_at) / RFU C10orf10 (11716521_a_at) / Fold change /veh C10orf10 (11716521_a_at) / RFU C5orf56 (11738089_at) / Fold change /veh C5orf56 (11738089_at) / RFU CYB561 (11721691_x_at) / Fold change /veh CYB561 (11721691_x_at) / RFU ANKRD19P (11752326_a_at) / Fold change /veh ANKRD19P (11752326_a_at) / RFU OR2T12 /// OR2T33 /// OR2T8 (11738714_s_at) / Fold change /veh OR2T12 /// OR2T33 /// OR2T8 (11738714_s_at) / RFU VCAN (11748164_a_at) / Fold change /veh VCAN (11748164_a_at) / RFU JSRP1 (11732532_at) / Fold change /veh JSRP1 (11732532_at) / RFU KRTAP10-11 (11738290_x_at) / Fold change /veh KRTAP10-11 (11738290_x_at) / RFU MYO3A (11730013_a_at) / Fold change /veh MYO3A (11730013_a_at) / RFU EBF3 (11725865_a_at) / Fold change /veh EBF3 (11725865_a_at) / RFU CAMK2N1 (11719241_x_at) / Fold change /veh CAMK2N1 (11719241_x_at) / RFU C5orf56 (11738088_a_at) / Fold change /veh C5orf56 (11738088_a_at) / RFU OLFML3 (11715873_a_at) / Fold change /veh OLFML3 (11715873_a_at) / RFU LOC100653217 /// NTM (11731650_a_at) / Fold change /veh LOC100653217 /// NTM (11731650_a_at) / RFU MAPK11 (11762145_a_at) / Fold change /veh MAPK11 (11762145_a_at) / RFU FIZ1 (11724087_x_at) / Fold change /veh FIZ1 (11724087_x_at) / RFU OASL (11726364_x_at) / Fold change /veh OASL (11726364_x_at) / RFU SOX15 (11748057_x_at) / Fold change /veh SOX15 (11748057_x_at) / RFU CD79A (11719716_a_at) / Fold change /veh CD79A (11719716_a_at) / RFU HIST1H1D (11736915_at) / Fold change /veh HIST1H1D (11736915_at) / RFU CASKIN2 (11723855_a_at) / Fold change /veh CASKIN2 (11723855_a_at) / RFU LOC730098 (11760151_x_at) / Fold change /veh LOC730098 (11760151_x_at) / RFU OR4N2 (11742367_at) / Fold change /veh OR4N2 (11742367_at) / RFU PRRT2 (11749266_a_at) / Fold change /veh PRRT2 (11749266_a_at) / RFU SNX32 (11753110_a_at) / Fold change /veh SNX32 (11753110_a_at) / RFU CDHR5 (11726645_a_at) / Fold change /veh CDHR5 (11726645_a_at) / RFU RCAN1 (11760418_a_at) / Fold change /veh RCAN1 (11760418_a_at) / RFU FAM167A (11723789_a_at) / Fold change /veh FAM167A (11723789_a_at) / RFU FAM26E (11764081_at) / Fold change /veh FAM26E (11764081_at) / RFU ISYNA1 (11749810_s_at) / Fold change /veh ISYNA1 (11749810_s_at) / RFU ACY1 (11761880_at) / Fold change /veh ACY1 (11761880_at) / RFU 11764098_at / Fold change /veh 11764098_at / RFU SAMD14 (11745864_x_at) / Fold change /veh SAMD14 (11745864_x_at) / RFU NPB (11741838_a_at) / Fold change /veh NPB (11741838_a_at) / RFU TMPRSS6 (11731388_a_at) / Fold change /veh TMPRSS6 (11731388_a_at) / RFU KRTAP10-2 (11738614_at) / Fold change /veh KRTAP10-2 (11738614_at) / RFU ARHGAP8 /// PRR5-ARHGAP8 (11727945_x_at) / Fold change /veh ARHGAP8 /// PRR5-ARHGAP8 (11727945_x_at) / RFU KRTAP5-7 /// NADSYN1 (11734609_at) / Fold change /veh KRTAP5-7 /// NADSYN1 (11734609_at) / RFU RASL12 (11751679_a_at) / Fold change /veh RASL12 (11751679_a_at) / RFU CDKN2B (11736163_a_at) / Fold change /veh CDKN2B (11736163_a_at) / RFU PRF1 (11729649_at) / Fold change /veh PRF1 (11729649_at) / RFU, ZNF638 /// ZNF638-IT1 / Fold change vs veh, ZNF638 /// ZNF638-IT1 / RFU, PANK3 / Fold change vs veh, PANK3 / RFU, SH3YL1 / Fold change vs veh, SH3YL1 / RFU, ZEB2 / Fold change vs veh, ZEB2 / RFU, NRIP1 / Fold change vs veh, NRIP1 / RFU, PTTG1IP / Fold change vs veh, PTTG1IP / RFU, CAPN2 / Fold change vs veh, CAPN2 / RFU, MED14 / Fold change vs veh, MED14 / RFU, SNORA58 / Fold change vs veh, SNORA58 / RFU, C1orf63 / Fold change vs veh, C1orf63 / RFU, LRRFIP1 / Fold change vs veh, LRRFIP1 / RFU, NDUFAF7 / Fold change vs veh, NDUFAF7 / RFU, SLC12A2 / Fold change vs veh, SLC12A2 / RFU, IBTK / Fold change vs veh, IBTK / RFU, ESF1 / Fold change vs veh, ESF1 / Fold change vs veh, TMEM50B / RFU, TAOK1 / Fold change vs veh, TAOK1 / RFU, ACBD3 / Fold change vs veh, ACBD3 / RFU, TMA16 / Fold change vs veh, TMA16 / RFU, RWDD3 / Fold change vs veh, RWDD3 / RFU, BCAT1 / Fold change vs veh, BCAT1 / RFU, EDEM3 / Fold change vs veh, EDEM3 / RFU, TMEM33 / Fold change vs veh, TMEM33 / RFU, WDR75 / Fold change vs veh, WDR75 / RFU, AHCTF1 / Fold change vs veh, AHCTF1 / RFU, TFRC / Fold change vs veh, TFRC / RFU, ZDHHC17 / Fold change vs veh, ZDHHC17 / RFU, NOM1 / Fold change vs veh, NOM1 / RFU, ARL8B / Fold change vs veh, ARL8B / RFU, ZBTB11 / Fold change vs veh, ZBTB11 / RFU, TAMM41 / Fold change vs veh, TAMM41 / RFU, KIAA1704 /// LOC100996395 / Fold change vs veh, KIAA1704 /// LOC100996395 / RFU, ING1 / Fold change vs veh, ING1 / RFU, TRMT61B / Fold change vs veh, TRMT61B / RFU, FUBP3 / Fold change vs veh, FUBP3 / RFU, TP53 / Fold change vs veh, TP53 / RFU, TNKS2 / Fold change vs veh, TNKS2 / RFU, ZFP14 / Fold change vs veh, ZFP14 / RFU, ACTR2 / Fold change vs veh, ACTR2 / RFU, PPP3R1 / Fold change vs veh, PPP3R1 / RFU, PIK3R1 / Fold change vs veh, PIK3R1 / RFU, HNRNPA1 / Fold change vs veh, HNRNPA1 / RFU, RNF170 / Fold change vs veh, RNF170 / RFU, ZNF28 / Fold change vs veh, ZNF28 / RFU, RNGTT / Fold change vs veh, RNGTT / RFU, OGT / Fold change vs veh, OGT / RFU, BRD1 / Fold change vs veh, BRD1 / RFU, MARS / Fold change vs veh, MARS / RFU, ZNF655 / Fold change vs veh, ZNF655 / RFU, FAHD1 / Fold change vs veh, FAHD1 / RFU, BDP1 / Fold change vs veh, BDP1 / RFU, LRRCC1 / Fold change vs veh, LRRCC1 / RFU, ARID1A / Fold change vs veh, ARID1A / RFU, ZNF146 / Fold change vs veh, ZNF146 / RFU, ZNF330 / Fold change vs veh, ZNF330 / RFU, GPN3 / Fold change vs veh, GPN3 / RFU, C9orf123 / Fold change vs veh, C9orf123 / RFU, N4BP2L2 / Fold change vs veh, N4BP2L2 / RFU, ARFIP1 / Fold change vs veh, ARFIP1 / RFU, FAM179B / Fold change vs veh, FAM179B / RFU, BCL10 / Fold change vs veh, BCL10 / RFU, UHRF1BP1L / Fold change vs veh, UHRF1BP1L / RFU, BET1 / Fold change vs veh, BET1 / RFU, CNOT2 / Fold change vs veh, CNOT2 / RFU, ZNF268 / Fold change vs veh, ZNF268 / Fold change vs veh, ZNF507 / RFU, DGCR2 / Fold change vs veh, DGCR2 / RFU, WDSUB1 / Fold change vs veh, WDSUB1 / Fold change vs veh, HSP90B1 /// MIR3652 / RFU, ADSS / Fold change vs veh, ADSS / RFU, GK / Fold change vs veh, GK / RFU, ZNF148 / Fold change vs veh, ZNF148 / RFU, TAF9 / Fold change vs veh, TAF9 / RFU, SLC1A5 / Fold change vs veh, SLC1A5 / RFU, SLMO2 / Fold change vs veh, SLMO2 / RFU, ABCC4 / Fold change vs veh, ABCC4 / RFU, LOC101060439 /// RAP1B / Fold change vs veh, LOC101060439 /// RAP1B / RFU, RFX7 / Fold change vs veh, RFX7 / RFU, GTPBP10 / Fold change vs veh, GTPBP10 / RFU, CNEP1R1 / Fold change vs veh, CNEP1R1 / RFU, BIVM-ERCC5 /// ERCC5 / Fold change vs veh, BIVM-ERCC5 /// ERCC5 / RFU, ILF3 / Fold change vs veh, ILF3 / RFU 11762660_at / Fold change /veh 11762660_at / RFU VCAN (11757783_s_at) / Fold change /veh VCAN (11757783_s_at) / RFU DDX43 (11728927_at) / Fold change /veh DDX43 (11728927_at) / RFU KRT8 (11758188_x_at) / Fold change /veh KRT8 (11758188_x_at) / RFU NKD1 (11759106_at) / Fold change /veh NKD1 (11759106_at) / RFU SRD5A1 (11742802_a_at) / Fold change /veh SRD5A1 (11742802_a_at) / RFU TPSAB1 /// TPSB2 (11721975_s_at) / Fold change /veh TPSAB1 /// TPSB2 (11721975_s_at) / RFU GSTM3 (11746129_a_at) / Fold change /veh GSTM3 (11746129_a_at) / RFU IL23R (11737362_x_at) / Fold change /veh IL23R (11737362_x_at) / RFU TMEM51 (11727254_a_at) / Fold change /veh TMEM51 (11727254_a_at) / RFU PIWIL2 (11732686_x_at) / Fold change /veh PIWIL2 (11732686_x_at) / RFU ORM1 (11744905_x_at) / Fold change /veh ORM1 (11744905_x_at) / RFU CCDC152 (11743942_at) / Fold change /veh CCDC152 (11743942_at) / RFU ECM1 (11717891_a_at) / Fold change /veh ECM1 (11717891_a_at) / RFU IL23R (11748794_a_at) / Fold change /veh IL23R (11748794_a_at) / RFU TNFAIP8L3 (11732012_x_at) / Fold change /veh TNFAIP8L3 (11732012_x_at) / RFU MBOAT4 (11741988_at) / Fold change /veh MBOAT4 (11741988_at) / RFU 11764193_at / Fold change /veh 11764193_at / RFU TMEM53 (11763286_at) / Fold change /veh TMEM53 (11763286_at) / RFU MAGEB2 (11727129_at) / Fold change /veh MAGEB2 (11727129_at) / RFU TMEM200A (11744735_a_at) / Fold change /veh TMEM200A (11744735_a_at) / RFU CCDC152 (11751479_a_at) / Fold change /veh CCDC152 (11751479_a_at) / RFU FAM211A (11726209_a_at) / Fold change /veh FAM211A (11726209_a_at) / RFU RGS16 (11746705_a_at) / Fold change /veh RGS16 (11746705_a_at) / RFU VCAN (11755009_s_at) / Fold change /veh VCAN (11755009_s_at) / RFU RHOB (11743442_s_at) / Fold change /veh RHOB (11743442_s_at) / RFU RGS16 (11720943_a_at) / Fold change /veh RGS16 (11720943_a_at) / RFU RGS16 (11720944_at) / Fold change /veh RGS16 (11720944_at) / RFU, VPS4B / Fold change vs veh, VPS4B / RFU, CREB1 / Fold change vs veh, CREB1 / RFU, DNAJC13 / Fold change vs veh, DNAJC13 / RFU, GNAQ / Fold change vs veh, GNAQ / RFU, CDK5R1 / Fold change vs veh, CDK5R1 / RFU, ZRANB3 / Fold change vs veh, ZRANB3 / RFU, CUL4A / Fold change vs veh, CUL4A / RFU, CCNY / Fold change vs veh, CCNY / RFU, UFL1 / Fold change vs veh, UFL1 / RFU, COG3 / Fold change vs veh, COG3 / RFU, DIAPH2 / Fold change vs veh, DIAPH2 / RFU, SKA2 / Fold change vs veh, SKA2 / RFU, AFF3 / Fold change vs veh, AFF3 / RFU, LMF1 / Fold change vs veh, LMF1 / RFU, IPO11 / Fold change vs veh, IPO11 / RFU, DFFB / Fold change vs veh, DFFB / RFU, FOXP1 / Fold change vs veh, FOXP1 / RFU, CARD8 / Fold change vs veh, CARD8 / RFU, STRN3 / Fold change vs veh, STRN3 / RFU, ADK / Fold change vs veh, ADK / RFU, RASSF2 / Fold change vs veh, RASSF2 / RFU, WIPF1 / Fold change vs veh, WIPF1 / RFU, LARP1B / Fold change vs veh, LARP1B / RFU, RASA1 / Fold change vs veh, RASA1 / RFU, RB1 / Fold change vs veh, RB1 / RFU, PPFIA1 / Fold change vs veh, PPFIA1 / RFU, MAT2A / Fold change vs veh, MAT2A / RFU, CCT5 / Fold change vs veh, CCT5 / RFU, WDR92 / Fold change vs veh, WDR92 / RFU, CUX1 / Fold change vs veh, CUX1 / RFU, TTC7A / Fold change vs veh, TTC7A / RFU, TMEM135 / Fold change vs veh, TMEM135 / RFU, DEPTOR / Fold change vs veh, DEPTOR / RFU, CPM / Fold change vs veh, CPM / RFU, DNAJB6 / Fold change vs veh, DNAJB6 / RFU, CACNA2D3 / Fold change vs veh, CACNA2D3 / RFU, DTX4 / Fold change vs veh, DTX4 / RFU, TFCP2 / Fold change vs veh, TFCP2 / RFU, GMCL1 /// GMCL1P1 / Fold change vs veh, GMCL1 /// GMCL1P1 / RFU, AEBP2 / Fold change vs veh, AEBP2 / RFU, SNHG1 /// SNORD22 /// SNORD25 /// SNORD26 /// SNORD27 /// SNORD28 /// SNORD29 /// SNORD31 / Fold change vs veh, SNHG1 /// SNORD22 /// SNORD25 /// SNORD26 /// SNORD27 /// SNORD28 /// SNORD29 /// SNORD31 / Fold change (Aza/veh), C12orf56 (ProbeSet 11735607_a_at) / Fold change (ACY-1035/veh), C12orf56 (ProbeSet 11735607_a_at) / Fold change (Aza/veh), FGFR1OP (ProbeSet 11751329_s_at) / Fold change (ACY-1035/veh), FGFR1OP (ProbeSet 11751329_s_at) / Fold change (Aza/veh), VPS36 (ProbeSet 11739960_a_at) / Fold change (ACY-1035/veh), VPS36 (ProbeSet 11739960_a_at) / RFU SYPL1 (11715823_x_at) / Fold change /veh SYPL1 (11715823_x_at) / RFU IGFBP7 (11715501_s_at) / Fold change /veh IGFBP7 (11715501_s_at) / RFU REEP3 (11722064_at) / Fold change /veh REEP3 (11722064_at) / RFU IGLL1 (11728026_x_at) / Fold change /veh IGLL1 (11728026_x_at): dose or concentration left out as unconfirmed
# Conditions: ProbeSet 11731461_x_at; LIST D
structure (smiles),measurement,value
Nc1ccc(-c2cccs2)cc1NC(=O)c1ccc2c(c1)cc(C1CC1)n2CCN1CCOCC1 [ACY-1035],"RFU, CPM",131.54 RFU
